# Assay results as given in publication PMC12142043, “Cell-based high-content approach for SARS-CoV-2 neutralization identifies unique monoclonal antibodies and PI3K pathway inhibitors” (Frontiers in Cell and Developmental Biology, 2025).
# Like-named read-outs stand apart in the source and are kept apart here.
# System: SARS-CoV-2 (USA-WA1/2020) in Calu-3 cells
# Type: cell-based
# [1] = high dose (10 µM), Calu-3, 48 h
# [2] = low dose (100 nM), Calu-3, 48 h
Compound,"dsRNA signal, AU High [1]","dsRNA signal, AU Low [2]","dsRNA signal, AU High","dsRNA signal, AU Low"
O=c1[nH]c2ccccc2n1C1CCN(Cc2ccc(-c3nc4cc5[nH]cnc5cc4nc3-c3ccccc3)cc2)CC1 [AKT inhibitor VIII],14379.0 AU,47838.1 AU,–,–
CN1C(=O)C(Cc2c[nH]c3ccccc23)NC1=S (centres unmarked) [Necrostatin-1],12590.5 AU,10276.4 AU,–,–
FC(F)(F)c1ccc(CNc2ccc(Cc3c[nH]c4ncc(Cl)cc34)cn2)cn1 [Pexidartinib (PLX3397)],64762.3 AU,40586.0 AU,–,–
O=C(NC1CCOCC1)c1ccc(-c2cc(-c3c[nH]nc3-c3ccccn3)ccn2)cc1 [GW788388],8820.5 AU,0.0 AU,–,–
CCCNC(=O)Nc1ccc(Oc2ncnc3cc(OC)c(OC)cc23)cc1Cl [KRN 633],55097.1 AU,35164.2 AU,–,–
O=c1c(O)c(-c2ccc(O)c(O)c2)oc2cc(O)cc(O)c12 [Quercetin dihydrate],25411.6 AU,6435.1 AU,–,–
COc1c(Cl)cc2c([nH]c3cnccc32)c1NC(=O)c1cccnc1C [MLN120B],3021.2 AU,0.0 AU,–,–
Oc1cc(CNC(=S)/C=C/c2cc(O)c(O)c(Br)c2)cc(O)c1O [NT157],7372.8 AU,11852.6 AU,–,–
Cc1cccc(-c2[nH]c(C(C)(C)C)nc2-c2ccc3nccnc3c2)n1 [SB525334],34680.3 AU,27941.4 AU,–,–
Cn1cc(C2=C(c3ccc(Cl)cc3Cl)C(=O)NC2=O)c2ccccc21 [SB 216763],596.7 AU,53506.5 AU,–,–
Nc1ccc(/C=C/C(=O)NCc2cc3cc(-c4ccc(C(=O)N5CCC(F)(F)CC5)cc4)cc(-c4ccc(F)cc4)c3o2)cn1 [KPT-9274],6803.0 AU,25813.6 AU,–,–
COc1ccc(-c2cnc3c(-c4cccc5ncccc45)cnn3c2)cc1 [ML347],0.0 AU,58224.3 AU,–,–
COc1ccc(C(=O)Nc2sc3c(c2C(N)=O)CCCC3)cc1OC [TCS 359],5896.0 AU,63380.8 AU,–,–
CC(C)(C)n1nc(-c2ccc(Cl)cc2)c2c(N)ncnc21 [PP 2 (AG 1879)],53589.5 AU,40414.9 AU,–,–
CCCCCCCCc1ccc(CCC(N)(CO)CO)cc1 [Fingolimod (FTY720)],0.0 AU,13731.4 AU,–,–
COc1cc(N2CCOCC2)ccc1NC(=O)c1csc(-c2cccnc2)n1 [IRAK inhibitor 6],19776.5 AU,7334.0 AU,–,–
CNC(=O)c1cc(Oc2ccc(NC(=O)c3cccc(C(F)(F)F)c3)cc2)ccn1 [SKLB610],126.4 AU,8430.0 AU,–,–
N#Cc1c(Oc2ccc(F)c(NC(=O)Cc3cccc(C(F)(F)F)c3)c2)ccc2nc(NC(=O)C3CC3)sc12 [TAK-632],12667.4 AU,8796.8 AU,–,–
NC(=O)c1ccccc1Nc1ccnc(Nc2cccc(O)c2)n1 [DB07268],10652.5 AU,37894.5 AU,–,–
Cc1cc(C(=O)NOCCO)c(Nc2ccc(I)cc2F)n(C)c1=O [AZD8330],29149.3 AU,63631.5 AU,–,–

Compound,"dsRNA signal, AU High [1]","dsRNA signal, AU Low [2]","dsRNA signal, AU High","dsRNA signal, AU Low"
NC1(Cc2ccc(Cl)cc2)CCN(c2ncnc3[nH]ccc23)CC1 [CCT128930],1507.6 AU,9152.4 AU,–,–
CCS(=O)(=O)c1cccc(-c2cc(C(=O)NC3CCN(C)CC3)c(C)c3[nH]c4ncc(C)cc4c23)c1 [TAK-901],42486.6 AU,61332.6 AU,–,–
CC(=O)Nc1cccc(-n2c(=O)n(C3CC3)c(=O)c3c(Nc4ccc(I)cc4F)n(C)c(=O)c(C)c32)c1.C[S+](C)[O-] [Trametinib DMSO solvate],–,–,10918.5,24279.8
CHIR-98014,–,–,63043.9,37241.6
Cc1cn(-c2cc(NC(=O)c3ccc(C)c(Nc4nccc(-c5cnccn5)n4)c3)cc(C(F)(F)F)c2)cn1 [Radotinib(IY-5511)],11726.8 AU,29413.0 AU,–,–
Fc1cc(-c2cccc3ncc(-c4cnn(C5CCNCC5)c4)nc23)cc(F)c1CN1CCOCC1 [NVP-BSK805 2HCl],1810.2 AU,2038.5 AU,–,–
NC(=O)c1ccc(-c2nc(-c3ccc4c(c3)OCO4)c(-c3ccccn3)[nH]2)cc1 [SB 431542],540.4 AU,12958.4 AU,–,–
CC(C)C[C@H](N)C(=O)O [L-Leucine],3716.4 AU,18120.1 AU,–,–
C=CC(=O)N1CCC(Oc2cc3c(Nc4ccc(Cl)c(Cl)c4F)ncnc3cc2OC)CC1 [Poziotinib],19439.7 AU,63934.7 AU,–,–
Brc1c(Br)c(Br)c2n[nH]nc2c1Br [TBB],3323.3 AU,16520.0 AU,–,–
COc1ccc(S(=O)(=O)N(CCO)c2ccccc2CN(C)C/C=C/c2ccc(Cl)cc2)cc1.O=P(O)(O)O [KN-93 Phosphate],4943.4 AU,2840.4 AU,–,–
O=[N+]([O-])c1ccc(-c2nc(-c3ccncc3)c(-c3ccc(F)cc3)[nH]2)cc1 [PD 169316],4123.0 AU,13218.6 AU,–,–
CC1=C(C(=O)Nc2cc3cn[nH]c3cc2F)C(c2ccc(C(F)(F)F)cc2)CC(=O)N1 (centres unmarked) [GSK429286A],10329.9 AU,34075.4 AU,–,–
C[C@@H](N)[C@H]1CC[C@H](C(=O)Nc2ccncc2)CC1 [Y-27632],3508.5 AU,46665.7 AU,–,–
CC(C)Oc1ccc(-c2cnc3c(-c4ccnc5ccccc45)cnn3c2)cc1 [DMH-1],13545.0 AU,45359.2 AU,–,–
C[C@@H]1CN(CC(=O)Nc2ccc3c(c2)Cc2cccc(-c4cc(=O)cc(N5CCOCC5)o4)c2S3)C[C@H](C)O1 [KU-60019],31471.9 AU,10671.9 AU,–,–
COc1cc2ncnc(Nc3cccc(Br)c3)c2cc1OC.Cl [PD153035 hydrochloride],1669.4 AU,28866.3 AU,–,–
CC(C)NC(=O)COc1cccc(-c2nc(Nc3ccc4[nH]ncc4c3)c3ccccc3n2)c1 [SLx-2119],20785.5 AU,59494.3 AU,–,–
O=C1NC(=NCc2cccs2)S/C1=C\c1ccc2ncccc2c1 [Ro 3306],2807.1 AU,25048.4 AU,–,–
c1ccc(-c2[nH]ncc2-c2ccnc3ccccc23)nc1 [LY364947],12638.5 AU,3456.2 AU,–,–

Compound,"dsRNA signal, AU High [1]","dsRNA signal, AU Low [2]","dsRNA signal, AU High","dsRNA signal, AU Low"
"BrC1C(Br)C(Br)C(Br)C(Br)C1Br (centres unmarked) [1,2,3,4,5,6-Hexabromocyclohexane]",58.9 AU,23091.7 AU,–,–
CCOc1cc2ncc(C#N)c(Nc3ccc(OCc4ccccn4)c(Cl)c3)c2cc1NC(=O)/C=C/CN(C)C [Neratinib (HKI-272)],1101.0 AU,11881.7 AU,–,–
CN(C)Cc1cccc(N/C(=C2\C(=O)Nc3cc(C(N)=O)ccc32)c2ccccc2)c1 [BIX 02188],40230.6 AU,23376.7 AU,–,–
FC(F)c1nc2ccccc2n1-c1nc(N2CCOCC2)nc(N2CCOCC2)n1 [ZSTK474],6069.9 AU,23073.5 AU,–,–
O=C(/C=C/c1ccccc1)NC(NC(=S)Nc1ccc(Cl)cc1)C(Cl)(Cl)Cl (centres unmarked) [Sal 003],58234.6 AU,61292.8 AU,–,–
O=C1NCCCc2c1oc1ccc(O)cc21 [CID 755673],9033.3 AU,7582.1 AU,–,–
Cn1cc(-c2ccc3c(c2)CCN3C(=O)Cc2cccc(C(F)(F)F)c2)c2c(N)ncnc21 [GSK2606414],6871.8 AU,28375.6 AU,–,–
O=C(O)CCCCC(CCSCc1ccccc1)SCc1ccccc1 (centres unmarked) [CPI-613],36.8 AU,25399.4 AU,–,–
Nc1ncnc2c1c(-c1cccc(OCc3ccccc3)c1)cn2[C@H]1C[C@@H](CN2CCC2)C1 [NVP-AEW541],1274.0 AU,19640.6 AU,–,–
O=C1NC(=O)/C(=C\c2ccc3nccnc3c2)S1 [AS-605240],11785.5 AU,49405.3 AU,–,–
"CC(=O)c1c(O)c(C)c(O)c2c1OC1=CC(=O)C(C(C)=O)C(=O)C12C (single isomer, unassigned; (+)) [(+)-Usniacin]",3049.6 AU,59009.6 AU,–,–
COc1ccc(-c2coc3cc(O)cc(O)c3c2=O)cc1 [Biochanin A],14982.3 AU,21751.5 AU,–,–
O=C(Nc1ccccc1C(=O)NC1CCCCNC1=O)c1cc2ccccc2s1 (centres unmarked) [ANA 12],5083.5 AU,20498.0 AU,–,–
Nc1nc(N)c2nc(-c3cccc(O)c3)c(-c3cccc(O)c3)nc2n1 [TG100-115],401.6 AU,17405.4 AU,–,–
CN1CCC(CNc2ccc3ncc(-c4cccc(OC(F)(F)F)c4)n3n2)CC1 [SGI-1776 free base],1583.1 AU,29976.5 AU,–,–
"Cc1[nH]c(/C=C2\C(=O)Nc3ccccc32)c(C)c1CCC(=O)O [TSU-68 (SU6668,Orantinib)]",4841.4 AU,21696.8 AU,–,–
Cc1cn(-c2cc(NC(=O)c3ccc(C)c(Nc4nccc(-c5cccnc5)n4)c3)cc(C(F)(F)F)c2)cn1 [Nilotinib(AMN-107)],28653.4 AU,33622.0 AU,–,–
CNC(=O)c1cc(Oc2ccc(NC(=O)Nc3ccc(Cl)c(C(F)(F)F)c3)c(F)c2)ccn1 [Regorafenib],93.0 AU,63322.3 AU,–,–
